Legend:
Japanese bulrush = experiment: Test Example 1: herbicidal activity, application before weed generation under submerged conditions (Table 16, symbol B); type: in vivo, Japanese bulrush (Schoenoplectus juncoides); details: 320 g/ha applied herbicide
Procedure, shortened: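 Alluvial soil was flooded to 4 cm depth, weed seeds were sown mixed and 2.5-leaf rice seedlings were transplanted. On sowing day, the compound's emulsion, diluted in water to a set dose, was applied to the water surface. Plants grew at 25–30 °C and were scored 0–5 after three weeks.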

late watergrass = experiment: Test Example 2: herbicidal activity, application during weed generation under submerged conditions (Table 17, symbol A); type: in vivo, late watergrass (Echinochloa oryzicola); details: AAH 320 g/ha; application during weed generation, submerged conditions
Procedure, shortened: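 In this pot test, flooded alluvial soil (water depth 4 cm) holds all three species sown as a mixture. Once seedlings have one to two leaves, the compound's emulsion, thinned with water to the intended dose, is poured on the water; grading follows after three weeks on the earlier criteria.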

barnyard grass [1] = experiment: Test Example 3: herbicidal effect by foliage application, Wagner pot (Table 18, symbol H); type: in vivo, barnyard grass (Echinochloa crus-galli); details: amount of applied herbicide 320 g/ha
Procedure, shortened: (§1)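 Plants were sown in alluvial soil held under 0.1–0.5 cm standing water and grown 14 days in a greenhouse at 25–30 °C. An emulsifiable formulation, water-diluted to the set dose, was then sprayed onto the foliage, and effects were scored three weeks later using previously defined criteria.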

Chinese sprangletop = experiment: Test Example 3: herbicidal effect by foliage application, Wagner pot (Table 18, symbol D); type: in vivo, chinese sprangletop (Leptochloa chinensis); details: amount of applied herbicide 320 g/ha
Procedure, shortened: as §1

southern crabgrass = experiment: Test Example 4: herbicidal effect by soil treatment (Table 19, symbol F); type: in vivo, southern crabgrass (Digitaria ciliaris); details: amount of applied herbicide 320 g/ha
Procedure, shortened: (§2)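 Pre-emergence style soil spray: seeds under ~1.5 cm sterilized diluvial soil received a uniform coat of emulsion diluted to the predetermined herbicide amount. Greenhouse 25–30° C; readout at week three on previously defined criteria.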

green foxtail = experiment: Test Example 4: herbicidal effect by soil treatment (Table 19, symbol G); type: in vivo, green foxtail (Setaria viridis); details: amount of applied herbicide 320 g/ha
Procedure, shortened: as §2

barnyard grass [2] = experiment: Test Example 4: herbicidal effect by soil treatment (Table 19, symbol H); type: in vivo, barnyard grass (Echinochloa crus-galli); details: amount of applied herbicide 320 g/ha
Procedure, shortened: as §2

blackgrass [3] = experiment: Test Example 4: herbicidal effect by soil treatment (Table 19, symbol J); type: in vivo, blackgrass (Alopecurus myosuroides); details: amount of applied herbicide 320 g/ha
Procedure, shortened: as §2

velvetleaf = experiment: Test Example 4: herbicidal effect by soil treatment (Table 19, symbol M); type: in vivo, velvetleaf (Abutilon theophrasti); details: amount of applied herbicide 320 g/ha
Procedure, shortened: as §2

redroot pigweed = experiment: Test Example 4: herbicidal effect by soil treatment (Table 19, symbol N); type: in vivo, redroot pigweed (Amaranthus retroflexus); details: amount of applied herbicide 320 g/ha
Procedure, shortened: as §2

lambsquarters [4] = experiment: Test Example 4: herbicidal effect by soil treatment (Table 19, symbol O); type: in vivo, lambsquarters (Chenopodium album); details: amount of applied herbicide 320 g/ha
Procedure, shortened: as §2

chickweed = experiment: Test Example 4: herbicidal effect by soil treatment (Table 19, symbol P); type: in vivo, common chickweed (Stellaria media); details: amount of applied herbicide 320 g/ha
Procedure, shortened: as §2

wild oat = experiment: Test Example 5: herbicidal effect by foliage application, plastic box (Table 20, symbol I); type: in vivo, wild oat (Avena fatua); details: foliage application, AAH 320 g/ha, evaluated three weeks after application
Procedure, shortened: (§3)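 Plants were sown into sterilized diluvial soil under about 1.5 cm cover and kept in a greenhouse at 25° C. to 30° C. Fourteen days on, foliage received an even spray of the diluted emulsion. Herbicidal or crop effect was judged three weeks afterwards.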

blackgrass [5] = experiment: Test Example 5: herbicidal effect by foliage application, plastic box (Table 20, symbol J); type: in vivo, blackgrass (Alopecurus myosuroides); details: foliage application, AAH 320 g/ha, evaluated three weeks after application
Procedure, shortened: as §3

Italian ryegrass = experiment: Test Example 5: herbicidal effect by foliage application, plastic box (Table 20, symbol K); type: in vivo, Italian ryegrass (Lolium multiflorum); details: foliage application, AAH 320 g/ha, evaluated three weeks after application
Procedure, shortened: as §3

windgrass = experiment: Test Example 5: herbicidal effect by foliage application, plastic box (Table 20, symbol L); type: in vivo, windgrass (Apera spica-venti); details: foliage application, AAH 320 g/ha, evaluated three weeks after application
Procedure, shortened: as §3

lambsquarters [6] = experiment: Test Example 5: herbicidal effect by foliage application, plastic box (Table 20, symbol O); type: in vivo, lambsquarters (Chenopodium album); details: foliage application, AAH 320 g/ha, evaluated three weeks after application
Procedure, shortened: as §3

## Cc1ccccc1C(=O)Oc1c(C)nn(C)c(=O)c1-c1c(-c2ccc(OC(F)F)cc2)sc2ccc(F)cc12 [2-285]
Japanese bulrush
  Herbicidal effect on B: Japanese bulrush (grade 0-5): 3 (Herbicidal rate of 40% or more and less than 70%)
Late watergrass
  herbicidal effect rating, A: late watergrass: 3 (Herbicidal rate of 40% or more and less than 70%)
Barnyard grass [1]
  herbicidal effect on H: barnyard grass: 5 (Herbicidal rate of 90% or more (almost completely withered))
Chinese sprangletop
  herbicidal effect on D: Chinese sprangletop: 3 (Herbicidal rate of 40% or more and less than 70%)
Southern crabgrass
  herbicidal effect on F: southern crabgrass: 0 (Herbicidal rate of 5% or less (almost no effect))
Green foxtail
  herbicidal effect on G: green foxtail: 0 (Herbicidal rate of 5% or less (almost no effect))
Barnyard grass [2]
  herbicidal effect on H: barnyard grass: 0 (Herbicidal rate of 5% or less (almost no effect))
Blackgrass [3]
  herbicidal effect on J: blackgrass: 0 (Herbicidal rate of 5% or less (almost no effect))
velvetleaf
  herbicidal effect on M: velvetleaf: 0 (Herbicidal rate of 5% or less (almost no effect))
Redroot pigweed
  herbicidal effect on N: redroot pigweed: 0 (Herbicidal rate of 5% or less (almost no effect))
Lambsquarters [4]
  herbicidal effect on O: lambsquarters: 0 (Herbicidal rate of 5% or less (almost no effect))
chickweed
  herbicidal effect on P: chickweed: 3 (Herbicidal rate of 40% or more and less than 70%)
Wild oat
  I: wild oat, herbicidal effect (criteria 0-5): 1 (Herbicidal rate of 5% or more and less than 20%)
Blackgrass [5]
  J: blackgrass, herbicidal effect (criteria 0-5): 4 (Herbicidal rate of 70% or more and less than 90%)
Italian ryegrass
  K: Italian ryegrass, herbicidal effect (criteria 0-5): 4 (Herbicidal rate of 70% or more and less than 90%)
windgrass
  L: windgrass, herbicidal effect (criteria 0-5): 0 (Herbicidal rate of 5% or less (almost no effect))
Lambsquarters [6]
  O: lambsquarters, herbicidal effect (criteria 0-5): 5 (Herbicidal rate of 90% or more (almost completely withered))

## Cc1nn(C)c(=O)c(-c2c(-c3ccc(OC(F)F)cc3)sc3ccc(F)cc23)c1OC(=O)c1cccs1 [2-288]
Japanese bulrush
  Herbicidal effect on B: Japanese bulrush (grade 0-5): 5 (Herbicidal rate of 90% or more (almost completely withered))
Late watergrass
  herbicidal effect rating, A: late watergrass: 3 (Herbicidal rate of 40% or more and less than 70%)
Barnyard grass [1]
  herbicidal effect on H: barnyard grass: 5 (Herbicidal rate of 90% or more (almost completely withered))
Chinese sprangletop
  herbicidal effect on D: Chinese sprangletop: 4 (Herbicidal rate of 70% or more and less than 90%)
Southern crabgrass
  herbicidal effect on F: southern crabgrass: 3 (Herbicidal rate of 40% or more and less than 70%)
Green foxtail
  herbicidal effect on G: green foxtail: 4 (Herbicidal rate of 70% or more and less than 90%)
Barnyard grass [2]
  herbicidal effect on H: barnyard grass: 2 (Herbicidal rate of 20% or more and less than 40%)
Blackgrass [3]
  herbicidal effect on J: blackgrass: 0 (Herbicidal rate of 5% or less (almost no effect))
velvetleaf
  herbicidal effect on M: velvetleaf: 3 (Herbicidal rate of 40% or more and less than 70%)
Redroot pigweed
  herbicidal effect on N: redroot pigweed: 4 (Herbicidal rate of 70% or more and less than 90%)
Lambsquarters [4]
  herbicidal effect on O: lambsquarters: 4 (Herbicidal rate of 70% or more and less than 90%)
chickweed
  herbicidal effect on P: chickweed: 4 (Herbicidal rate of 70% or more and less than 90%)
Wild oat
  I: wild oat, herbicidal effect (criteria 0-5): 1 (Herbicidal rate of 5% or more and less than 20%)
Blackgrass [5]
  J: blackgrass, herbicidal effect (criteria 0-5): 4 (Herbicidal rate of 70% or more and less than 90%)
Italian ryegrass
  K: Italian ryegrass, herbicidal effect (criteria 0-5): 5 (Herbicidal rate of 90% or more (almost completely withered))
windgrass
  L: windgrass, herbicidal effect (criteria 0-5): 3 (Herbicidal rate of 40% or more and less than 70%)
Lambsquarters [6]
  O: lambsquarters, herbicidal effect (criteria 0-5): 5 (Herbicidal rate of 90% or more (almost completely withered))

## COCCOC(=O)Oc1c(C)nn(C)c(=O)c1-c1c(-c2ccc(OC(F)F)cc2)sc2ccc(F)cc12 [2-295]
Japanese bulrush
  Herbicidal effect on B: Japanese bulrush (grade 0-5): 3 (Herbicidal rate of 40% or more and less than 70%)
Late watergrass
  herbicidal effect rating, A: late watergrass: 5 (Herbicidal rate of 90% or more (almost completely withered))
Barnyard grass [1]
  herbicidal effect on H: barnyard grass: 5 (Herbicidal rate of 90% or more (almost completely withered))
Chinese sprangletop
  herbicidal effect on D: Chinese sprangletop: 4 (Herbicidal rate of 70% or more and less than 90%)
Southern crabgrass
  herbicidal effect on F: southern crabgrass: 5 (Herbicidal rate of 90% or more (almost completely withered))
Green foxtail
  herbicidal effect on G: green foxtail: 5 (Herbicidal rate of 90% or more (almost completely withered))
Barnyard grass [2]
  herbicidal effect on H: barnyard grass: 5 (Herbicidal rate of 90% or more (almost completely withered))
Blackgrass [3]
  herbicidal effect on J: blackgrass: 4 (Herbicidal rate of 70% or more and less than 90%)
velvetleaf
  herbicidal effect on M: velvetleaf: 4 (Herbicidal rate of 70% or more and less than 90%)
Redroot pigweed
  herbicidal effect on N: redroot pigweed: 5 (Herbicidal rate of 90% or more (almost completely withered))
Lambsquarters [4]
  herbicidal effect on O: lambsquarters: 5 (Herbicidal rate of 90% or more (almost completely withered))
chickweed
  herbicidal effect on P: chickweed: 4 (Herbicidal rate of 70% or more and less than 90%)
Wild oat
  I: wild oat, herbicidal effect (criteria 0-5): 3 (Herbicidal rate of 40% or more and less than 70%)
Blackgrass [5]
  J: blackgrass, herbicidal effect (criteria 0-5): 4 (Herbicidal rate of 70% or more and less than 90%)
Italian ryegrass
  K: Italian ryegrass, herbicidal effect (criteria 0-5): 5 (Herbicidal rate of 90% or more (almost completely withered))
windgrass
  L: windgrass, herbicidal effect (criteria 0-5): 5 (Herbicidal rate of 90% or more (almost completely withered))
Lambsquarters [6]
  O: lambsquarters, herbicidal effect (criteria 0-5): 5 (Herbicidal rate of 90% or more (almost completely withered))

## COc1cccc(S(=O)(=O)Oc2c(C)nn(C)c(=O)c2-c2c(-c3ccc(OC(F)F)cc3)sc3ccc(F)cc23)c1 [2-313]
Japanese bulrush
  Herbicidal effect on B: Japanese bulrush (grade 0-5): 3 (Herbicidal rate of 40% or more and less than 70%)
Late watergrass
  herbicidal effect rating, A: late watergrass: 3 (Herbicidal rate of 40% or more and less than 70%)
Barnyard grass [1]
  herbicidal effect on H: barnyard grass: 5 (Herbicidal rate of 90% or more (almost completely withered))
Chinese sprangletop
  herbicidal effect on D: Chinese sprangletop: 2 (Herbicidal rate of 20% or more and less than 40%)
Southern crabgrass
  herbicidal effect on F: southern crabgrass: 0 (Herbicidal rate of 5% or less (almost no effect))
Green foxtail
  herbicidal effect on G: green foxtail: 2 (Herbicidal rate of 20% or more and less than 40%)
Barnyard grass [2]
  herbicidal effect on H: barnyard grass: 1 (Herbicidal rate of 5% or more and less than 20%)
Blackgrass [3]
  herbicidal effect on J: blackgrass: 0 (Herbicidal rate of 5% or less (almost no effect))
velvetleaf
  herbicidal effect on M: velvetleaf: 4 (Herbicidal rate of 70% or more and less than 90%)
Redroot pigweed
  herbicidal effect on N: redroot pigweed: 5 (Herbicidal rate of 90% or more (almost completely withered))
Lambsquarters [4]
  herbicidal effect on O: lambsquarters: 3 (Herbicidal rate of 40% or more and less than 70%)
chickweed
  herbicidal effect on P: chickweed: 5 (Herbicidal rate of 90% or more (almost completely withered))
Wild oat
  I: wild oat, herbicidal effect (criteria 0-5): 2 (Herbicidal rate of 20% or more and less than 40%)
Blackgrass [5]
  J: blackgrass, herbicidal effect (criteria 0-5): 4 (Herbicidal rate of 70% or more and less than 90%)
Italian ryegrass
  K: Italian ryegrass, herbicidal effect (criteria 0-5): 5 (Herbicidal rate of 90% or more (almost completely withered))
windgrass
  L: windgrass, herbicidal effect (criteria 0-5): 2 (Herbicidal rate of 20% or more and less than 40%)
Lambsquarters [6]
  O: lambsquarters, herbicidal effect (criteria 0-5): 5 (Herbicidal rate of 90% or more (almost completely withered))

## C=CCSCc1ccc(-c2sc3ccc(F)cc3c2-c2c(O)c(C)nn(C)c2=O)cc1 [2-323]
Japanese bulrush
  Herbicidal effect on B: Japanese bulrush (grade 0-5): 2 (Herbicidal rate of 20% or more and less than 40%)
Late watergrass
  herbicidal effect rating, A: late watergrass: 3 (Herbicidal rate of 40% or more and less than 70%)
Barnyard grass [1]
  herbicidal effect on H: barnyard grass: 5 (Herbicidal rate of 90% or more (almost completely withered))
Chinese sprangletop
  herbicidal effect on D: Chinese sprangletop: 2 (Herbicidal rate of 20% or more and less than 40%)
Southern crabgrass
  herbicidal effect on F: southern crabgrass: 1 (Herbicidal rate of 5% or more and less than 20%)
Green foxtail
  herbicidal effect on G: green foxtail: 3 (Herbicidal rate of 40% or more and less than 70%)
Barnyard grass [2]
  herbicidal effect on H: barnyard grass: 0 (Herbicidal rate of 5% or less (almost no effect))
Blackgrass [3]
  herbicidal effect on J: blackgrass: 0 (Herbicidal rate of 5% or less (almost no effect))
velvetleaf
  herbicidal effect on M: velvetleaf: 1 (Herbicidal rate of 5% or more and less than 20%)
Redroot pigweed
  herbicidal effect on N: redroot pigweed: 5 (Herbicidal rate of 90% or more (almost completely withered))
Lambsquarters [4]
  herbicidal effect on O: lambsquarters: 3 (Herbicidal rate of 40% or more and less than 70%)
chickweed
  herbicidal effect on P: chickweed: 1 (Herbicidal rate of 5% or more and less than 20%)
Wild oat
  I: wild oat, herbicidal effect (criteria 0-5): 3 (Herbicidal rate of 40% or more and less than 70%)
Blackgrass [5]
  J: blackgrass, herbicidal effect (criteria 0-5): 4 (Herbicidal rate of 70% or more and less than 90%)
Italian ryegrass
  K: Italian ryegrass, herbicidal effect (criteria 0-5): 4 (Herbicidal rate of 70% or more and less than 90%)
windgrass
  L: windgrass, herbicidal effect (criteria 0-5): 5 (Herbicidal rate of 90% or more (almost completely withered))
Lambsquarters [6]
  O: lambsquarters, herbicidal effect (criteria 0-5): 5 (Herbicidal rate of 90% or more (almost completely withered))
